Measurements taken from ChEMBL document CHEMBL1201862, “PubChem BioAssay data set” (2004).
One block for each compound: values may come before it. Calls of active or inactive are those of the source.

Assays:
[1] = target: T1, DNA repair protein RAD52 homolog (Homo sapiens, UniProt P43351); format: functional, biochemical
T1 sequence (P43351 whole entry): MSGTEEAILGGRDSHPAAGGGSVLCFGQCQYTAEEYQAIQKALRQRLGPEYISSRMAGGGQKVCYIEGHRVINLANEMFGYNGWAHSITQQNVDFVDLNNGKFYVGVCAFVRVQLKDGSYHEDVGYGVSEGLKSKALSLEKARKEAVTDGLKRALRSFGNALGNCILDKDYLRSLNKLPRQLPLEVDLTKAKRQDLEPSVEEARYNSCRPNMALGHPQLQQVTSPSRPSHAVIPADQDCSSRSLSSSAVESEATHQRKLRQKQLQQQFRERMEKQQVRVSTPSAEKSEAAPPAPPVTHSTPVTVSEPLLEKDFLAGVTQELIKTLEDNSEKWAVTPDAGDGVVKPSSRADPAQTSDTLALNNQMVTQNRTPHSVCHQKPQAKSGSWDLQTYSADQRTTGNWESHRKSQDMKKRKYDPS

[2] = target: T2, Microphthalmia-associated transcription factor (Homo sapiens, UniProt O75030); experiment: TRPM1 promoter luciferase signal decrease, dose response, MITF inhibitor project, cell-based, SK-MEL-5, cherry-picked, set 3 (AID 493073); format: functional
T2 sequence (O75030 whole entry): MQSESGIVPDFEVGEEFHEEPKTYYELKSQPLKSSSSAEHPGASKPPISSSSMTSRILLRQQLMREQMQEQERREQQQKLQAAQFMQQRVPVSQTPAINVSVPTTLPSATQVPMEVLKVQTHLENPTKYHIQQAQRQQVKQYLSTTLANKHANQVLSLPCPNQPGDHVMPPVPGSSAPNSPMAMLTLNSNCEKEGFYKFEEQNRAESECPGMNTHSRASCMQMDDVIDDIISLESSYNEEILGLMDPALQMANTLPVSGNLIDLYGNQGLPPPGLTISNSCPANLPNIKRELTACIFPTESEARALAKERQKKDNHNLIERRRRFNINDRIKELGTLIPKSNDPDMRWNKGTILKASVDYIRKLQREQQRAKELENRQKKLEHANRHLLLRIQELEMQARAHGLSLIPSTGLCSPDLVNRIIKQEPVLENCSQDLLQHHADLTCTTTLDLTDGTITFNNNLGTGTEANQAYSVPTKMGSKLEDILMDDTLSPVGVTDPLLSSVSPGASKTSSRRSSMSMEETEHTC

[3] = target: G-protein coupled receptor 35 (Homo sapiens, UniProt Q9HC97); experiment: GPR35 antagonists blocking zaprinast-driven arrestin recruitment, primary screen, imaging, U2OS, beta-arrestin-GFP, zaprinast agonist (AID 2058); format: functional;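 note: antagonist potency meaning inhibition of agonist-induced arrestin redistribution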
[4] = target: T3, Small ubiquitin-related modifier 1 (Homo sapiens, UniProt P63165); experiment: inhibitors of SUMO1 partner interactions, dose response, biochemical, FRET (AID 624383); format: functional; details: read-out: IC50_Mean
[5] = target: T3, Small ubiquitin-related modifier 1; experiment: inhibitors of SUMO1 peptide binding, dose response, biochemical, fluorescence polarization, uHTS hits (AID 624382); format: functional; details: read-out: IC50_Mean
[6] = Luminescence Cell Based Dose Confirmation HTS to Identify Activators of 5'UTR Stem-Loop Driven Alpha-Synuclein mRNA Translation in H4 Neuroglioblastoma Cells. [Related pubchem assays (depositor defined):AID1813, AID1829]; format: functional; details: Homo sapiens
[7] = target: Induced myeloid leukemia cell differentiation protein Mcl-1 (Homo sapiens, UniProt Q07820); format: functional
[8] = target: Envelope glycoprotein gp160 (Human immunodeficiency virus 1, UniProt Q6QLK5); experiment: inhibitors of HIV fusion peptide binding, primary screen, biochemical, uHTS, fluorescence dequenching (AID 1986)
[9] = THP-1 cell cytotoxicity, dose response, cytotoxicity control for Vif-APOBEC3G degradation inhibitor project, THP-1 cells (AID 1117359); format: functional; details: Human immunodeficiency virus 1, THP-1
[10] = Shn3 3'UTR reporter inhibitors, dose response, cell-based, Clone20 osteoblasts, firefly luciferase, cherry-picked (AID 624132); format: functional;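 note: firefly luciferase luminescence from reporter carrying the Shn3 3'UTR in osteoblasts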
[11] = HepG2 cell cytotoxicity, dose response, cytotoxicity control for Shn3 inhibitor project, CellTiter-Glo, cherry-picked (AID 624134); format: functional, cell-based
[12] = ADAM10 protease inhibitors, dose response, selectivity assay for ADAM17 exosite inhibitor project, biochemical, FRET peptide substrate, recombinant human ADAM10 (AID 743259);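 note: ADAM10 enzyme cleaving a FRET peptide substrate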
[13] = control 3'UTR Renilla luciferase suppression, dose response, counter-screen for Shn3 inhibitor project, cell-based, Clone20-Shn3RL, cherry-picked (AID 624133); format: functional
[14] = nmpC-GFP reporter inhibition in S. Typhimurium, dose response, counter-screen for PhoP regulon inhibitor project, purified and synthesized compounds, set 2 (AID 2834); format: functional
[15] = target: Disintegrin and metalloproteinase domain-containing protein 17 (Homo sapiens, UniProt P78536); experiment: exosite inhibitors of ADAM17, dose response, biochemical (AID 743260)
Chain of Disintegrin and metalloproteinase domain-containing protein 17 (P78536 whole entry, the tested form may be a part): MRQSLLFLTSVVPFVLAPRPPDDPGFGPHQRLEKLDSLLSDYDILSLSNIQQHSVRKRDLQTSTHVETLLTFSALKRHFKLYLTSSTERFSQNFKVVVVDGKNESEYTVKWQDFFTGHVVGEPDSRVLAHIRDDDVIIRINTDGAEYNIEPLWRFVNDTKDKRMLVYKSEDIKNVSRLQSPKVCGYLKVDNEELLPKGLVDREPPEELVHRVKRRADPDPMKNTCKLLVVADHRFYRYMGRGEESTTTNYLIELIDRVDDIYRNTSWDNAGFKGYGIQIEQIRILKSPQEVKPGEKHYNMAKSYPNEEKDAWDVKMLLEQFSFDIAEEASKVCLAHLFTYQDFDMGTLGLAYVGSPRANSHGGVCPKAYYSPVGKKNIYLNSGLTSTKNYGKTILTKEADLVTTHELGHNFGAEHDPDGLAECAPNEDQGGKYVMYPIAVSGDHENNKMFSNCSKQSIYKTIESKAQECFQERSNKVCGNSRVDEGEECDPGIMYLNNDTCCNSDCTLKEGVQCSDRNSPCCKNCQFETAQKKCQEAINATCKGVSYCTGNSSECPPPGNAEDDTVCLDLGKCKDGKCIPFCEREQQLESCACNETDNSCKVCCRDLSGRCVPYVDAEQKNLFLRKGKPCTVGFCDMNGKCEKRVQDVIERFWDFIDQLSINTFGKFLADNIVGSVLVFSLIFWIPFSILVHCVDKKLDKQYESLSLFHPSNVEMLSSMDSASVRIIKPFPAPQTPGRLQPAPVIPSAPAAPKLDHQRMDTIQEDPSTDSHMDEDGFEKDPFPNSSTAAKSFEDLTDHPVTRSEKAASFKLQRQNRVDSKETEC

T3 sequence (P63165 whole entry): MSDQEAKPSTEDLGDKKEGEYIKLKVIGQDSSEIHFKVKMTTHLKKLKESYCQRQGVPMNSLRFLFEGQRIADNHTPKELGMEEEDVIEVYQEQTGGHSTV
Chain of Induced myeloid leukemia cell differentiation protein Mcl-1 (Q07820 whole entry, the tested form may be a part): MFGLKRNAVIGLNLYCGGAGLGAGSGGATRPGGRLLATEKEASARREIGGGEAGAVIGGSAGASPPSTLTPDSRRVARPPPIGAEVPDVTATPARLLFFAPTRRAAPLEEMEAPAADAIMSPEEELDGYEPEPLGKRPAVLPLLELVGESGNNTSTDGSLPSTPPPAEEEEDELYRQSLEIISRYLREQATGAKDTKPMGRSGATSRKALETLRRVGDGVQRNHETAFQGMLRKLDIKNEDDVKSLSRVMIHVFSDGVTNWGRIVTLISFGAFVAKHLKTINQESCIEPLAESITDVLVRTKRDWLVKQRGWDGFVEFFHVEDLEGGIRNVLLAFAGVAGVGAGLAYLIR
Chain of G-protein coupled receptor 35 (Q9HC97 whole entry): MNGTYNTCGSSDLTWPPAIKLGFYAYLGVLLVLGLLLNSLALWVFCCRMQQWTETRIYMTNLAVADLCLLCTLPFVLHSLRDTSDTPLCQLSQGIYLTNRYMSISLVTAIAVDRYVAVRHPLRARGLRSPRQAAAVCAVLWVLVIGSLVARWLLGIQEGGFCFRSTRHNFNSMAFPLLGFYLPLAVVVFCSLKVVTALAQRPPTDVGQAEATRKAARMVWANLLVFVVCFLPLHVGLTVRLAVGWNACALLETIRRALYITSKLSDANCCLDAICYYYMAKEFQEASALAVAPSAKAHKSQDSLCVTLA
Chain of Envelope glycoprotein gp160 (Q6QLK5 whole entry, the tested form may be a part): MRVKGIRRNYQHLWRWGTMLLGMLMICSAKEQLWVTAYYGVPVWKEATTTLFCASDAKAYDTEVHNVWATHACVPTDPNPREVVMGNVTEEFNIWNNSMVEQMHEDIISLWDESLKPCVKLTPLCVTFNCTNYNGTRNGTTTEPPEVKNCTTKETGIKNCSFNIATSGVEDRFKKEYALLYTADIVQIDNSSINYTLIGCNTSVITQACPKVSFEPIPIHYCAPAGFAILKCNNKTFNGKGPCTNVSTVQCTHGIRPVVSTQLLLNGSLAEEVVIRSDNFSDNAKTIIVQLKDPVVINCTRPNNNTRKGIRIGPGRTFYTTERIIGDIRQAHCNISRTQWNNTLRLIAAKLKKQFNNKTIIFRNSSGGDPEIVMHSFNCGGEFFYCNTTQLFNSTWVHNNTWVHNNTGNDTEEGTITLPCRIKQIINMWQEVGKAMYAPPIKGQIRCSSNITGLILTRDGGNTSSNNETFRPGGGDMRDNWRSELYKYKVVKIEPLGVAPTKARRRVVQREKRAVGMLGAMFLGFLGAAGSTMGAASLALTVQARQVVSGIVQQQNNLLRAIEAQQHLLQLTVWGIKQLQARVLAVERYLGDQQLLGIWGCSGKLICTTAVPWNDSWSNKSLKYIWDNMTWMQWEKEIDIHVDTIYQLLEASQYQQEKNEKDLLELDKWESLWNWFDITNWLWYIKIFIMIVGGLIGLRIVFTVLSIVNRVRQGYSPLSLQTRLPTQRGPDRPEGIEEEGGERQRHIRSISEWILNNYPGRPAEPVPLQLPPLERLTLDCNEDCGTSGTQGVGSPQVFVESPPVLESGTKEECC

AC50 [1]: 15.6 µM (active) | AC50 [2]: 7.51 µM (active) | IC50 [3]: > 32 µM (inactive)
Structure (SMILES): CN(C)CCCNC(=O)/C(=C\c1ccc(-c2ccc(Br)cc2)o1)NC(=O)c1ccccc1

Structure (SMILES): COc1ccc(Cl)cc1Nc1nnc(-c2ccncc2)s1
IC50 [4]: 4.83 µM (active) | IC50 [5]: > 66.6 µM (inactive) | EC50 [6]: 73.5 µM (active)

IC50 [7]: 1.52 µM (active) | IC50 [8]: 11.2 µM (active)
Structure (SMILES): O=C(O)C[C@@H]1C(=O)O[C@@H]2C(COC(=O)c3cc(O)c(O)c(O)c3)O[C@@H](OC(=O)c3cc(O)c(O)c(O)c3)[C@@H](OC(=O)c3cc(O)c(O)c4c3[C@H]1[C@H](O)C(=O)O4)[C@H]2OC(=O)c1cc(O)c(O)c(O)c1 (stereo not given in full)
CC50 [9]: > 40 µM (active)

Structure (SMILES): S=C(NCc1ccc(Cl)cc1)Nc1ccncc1
AC50 [10]: 1.5 µM (active) | AC50 [11]: 22.1 µM (active) | IC50 [12]: > 69.6 µM (inactive) | AC50 [13]: > 70 µM (inactive) | IC50 [14]: > 125 µM (active) | IC50 [15]: > 69.6 µM (inactive)
